Data taken from patent US8546588B2, “Substituted hydroxamic acids and uses thereof” (Millennium Pharmaceuticals, Inc., priority 2010, dated 2013).
pIC50: −log10 of the molar value.

target: T1, purified human HDAC6 (Homo sapiens, UniProt Q9UBN7); test: HDAC6 Enzyme Assay; format: biochemical; conditions: substrate Ac-Arg-Gly-Lys(Ac)-AMC peptide, 1 hour at 30° C.
T1 construct: purchased BPS Bioscience 5006
T1 sequence (Q9UBN7 1-1215): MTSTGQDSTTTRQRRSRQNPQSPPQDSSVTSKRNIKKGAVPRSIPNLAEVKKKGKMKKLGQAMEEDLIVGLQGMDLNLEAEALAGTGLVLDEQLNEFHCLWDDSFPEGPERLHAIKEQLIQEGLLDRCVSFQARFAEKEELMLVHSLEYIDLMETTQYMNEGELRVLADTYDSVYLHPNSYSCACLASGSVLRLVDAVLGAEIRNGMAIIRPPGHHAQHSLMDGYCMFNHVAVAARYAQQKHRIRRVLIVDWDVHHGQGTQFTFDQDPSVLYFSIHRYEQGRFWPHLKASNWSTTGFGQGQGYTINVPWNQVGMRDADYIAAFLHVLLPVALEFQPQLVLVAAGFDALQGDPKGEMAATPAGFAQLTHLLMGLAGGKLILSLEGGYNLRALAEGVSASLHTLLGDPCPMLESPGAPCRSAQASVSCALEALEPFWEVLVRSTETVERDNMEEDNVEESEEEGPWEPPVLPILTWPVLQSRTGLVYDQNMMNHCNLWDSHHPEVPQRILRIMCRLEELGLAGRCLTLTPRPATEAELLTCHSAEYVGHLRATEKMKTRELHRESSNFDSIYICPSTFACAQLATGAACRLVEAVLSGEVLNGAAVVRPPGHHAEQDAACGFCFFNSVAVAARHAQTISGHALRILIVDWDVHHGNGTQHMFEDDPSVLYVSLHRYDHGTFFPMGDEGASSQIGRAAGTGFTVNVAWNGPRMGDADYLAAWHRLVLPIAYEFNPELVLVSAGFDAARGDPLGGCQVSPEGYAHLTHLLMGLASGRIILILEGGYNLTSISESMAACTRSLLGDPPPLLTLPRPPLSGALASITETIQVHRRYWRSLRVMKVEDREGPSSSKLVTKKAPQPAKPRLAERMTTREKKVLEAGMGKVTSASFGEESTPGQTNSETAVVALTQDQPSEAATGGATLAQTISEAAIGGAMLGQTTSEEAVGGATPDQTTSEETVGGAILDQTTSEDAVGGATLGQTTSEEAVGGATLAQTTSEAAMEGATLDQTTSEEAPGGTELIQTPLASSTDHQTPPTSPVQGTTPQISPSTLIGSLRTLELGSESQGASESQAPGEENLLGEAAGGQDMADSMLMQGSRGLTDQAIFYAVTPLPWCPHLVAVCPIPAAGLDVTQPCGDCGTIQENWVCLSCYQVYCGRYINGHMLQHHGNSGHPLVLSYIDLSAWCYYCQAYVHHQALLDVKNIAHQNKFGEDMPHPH
Description: To measure the inhibition of HDAC6 activity, purified human HDAC6 (BPS Bioscience; Cat. No. 5006) is incubated with substrate Ac-Arg-Gly-Lys(Ac)-AMC peptide (Bachem Biosciences; Cat. No. I-1925) for 1 hour at 30° C. in the presence of test compounds or vehicle DMSO control. The reaction is stopped with the HDAC inhibitor trichostatin A (Sigma; Cat. No. T8552) and the amount of Arg-Gly-Lys-AMC generated is quantitated by digestion with trypsin (Sigma; Cat. No. T1426) and subsequent measurement of the amount of AMC released using a fluorescent plate reader (Pherastar; BMG Technologies) set at Ex 340 nm and Em 460 nm. Concentration response curves are generated by calculating the fluorescence increase in test compound-treated samples relative to DMSO-treated controls, and enzyme inhibition (IC50) values are determined from those curves.

SMILES | pIC50
C[C@@H](NS(=O)(=O)c1ccc(C(F)(F)F)cc1)c1ccc(C(=O)NO)s1 [Compound I-23, N-hydroxy-5-[(1R)-1-({[4-(trifluoromethyl)phenyl]sulfonyl}amino)ethyl]thiophene-2-carboxamide] | 6.30 to 7.00
C[C@H](NC(=O)c1cc2ccccc2o1)c1ncc(C(=O)NO)s1 [Compound I-159, 2-{(1S)-1-[(1-benzofuran-2-ylcarbonyl)amino]ethyl}-N-hydroxy-1,3-thiazole-5-carboxamide] | > 7.00
C[C@@H](NC(=O)c1cc2ccccc2o1)c1cc(C(=O)NO)on1 [Compound I-181, (R)-3-(1-(benzofuran-2-carboxamido)ethyl)-N-hydroxyisoxazole-5-carboxamide] | < 6.30
Cc1ccc(NC(=O)NC(C)c2ccc(C(=O)NO)s2)c(C)c1 (stereo not shown) [Compound I-13, 5-[1-({[(2,4-dimethylphenyl)amino]carbonyl}amino)ethyl]-N-hydroxythiophene-2-carboxamide] | > 7.00
CC(NC(=O)Nc1ccc(OC(F)(F)F)cc1)c1ccc(C(=O)NO)s1 (stereo not shown) [Compound I-22, N-hydroxy-5-{1-[({[4-(trifluoromethoxy)phenyl]amino}carbonyl)amino]ethyl}thiophene-2-carboxamide] | > 7.00
CC(NC(=O)Nc1ccc(C(C)(C)C)cc1)c1ccc(C(=O)NO)s1 (stereo not shown) [Compound I-36, 5-[1-({[(4-tert-butylphenyl)amino]carbonyl}amino)ethyl]-N-hydroxythiophene-2-carboxamide] | > 7.00
C[C@H](NC(=O)C(C)(C)C)c1ncc(C(=O)NO)s1 [Compound I-183, 2-{(1S)-1-[(2,2-dimethylpropanoyl)amino]ethyl}-N-hydroxy-1,3-thiazole-5-carboxamide] | < 6.30
Cc1nc(-c2ccccn2)sc1C(=O)N[C@H](C)c1cc(C(=O)NO)cn1C [Compound I-156, N-((1R)-1-{4-[(hydroxyamino)carbonyl]-1-methyl-1H-pyrrol-2-yl}ethyl)-4-methyl-2-pyridin-2-yl-1,3-thiazole-5-carboxamide] | < 6.30
CC(NC(=O)c1cc2cc(Cl)ccc2o1)c1ncc(C(=O)NO)s1 (stereo not shown) [Compound I-50, 2-(1-{[(5-chloro-1-benzofuran-2-yl)carbonyl]amino}ethyl)-N-hydroxy-1,3-thiazole-5-carboxamide] | > 7.00

Continued, values first:

pIC50 | SMILES
> 7.00 | CC(NC(=O)NCc1ccccc1)c1ccc(C(=O)NO)s1 (stereo not shown) [Compound I-18, 5-(1-{[(benzylamino)carbonyl]amino}ethyl)-N-hydroxythiophene-2-carboxamide]
> 7.00 | CC(NC(=O)Nc1ccccc1)c1ccc(C(=O)NO)s1 (stereo not shown) [Compound I-12, 5-{1-[(anilinocarbonyl)amino]ethyl}-N-hydroxythiophene-2-carboxamide]
< 6.30 | CC(NC(=O)C(C)(C)C)c1ncc(C(=O)NO)s1 (stereo not shown) [Compound I-53, 2-{1-[(2,2-dimethylpropanoyl)amino]ethyl}-N-hydroxy-1,3-thiazole-5-carboxamide]
< 6.30 | C[C@@H](NC(=O)C12CC3CC(CC(C3)C1)C2)c1ncc(C(=O)NO)s1 [Compound I-172, 2-((1R)-1-{[1-adamantylcarbonyl]amino}ethyl)-N-hydroxy-1,3-thiazole-5-carboxamide]
< 6.30 | C[C@@H](NC(=O)C1(C)CCCCC1)c1cc(C(=O)NO)on1 [Compound I-157, N-hydroxy-3-((1R)-1-{[(1-methylcyclohexyl)carbonyl]amino}ethyl)isoxazole-5-carboxamide]
< 6.30 | CC(NC(=O)C1(c2ccc(Cl)cc2)CCC1)c1ncc(C(=O)NO)s1 (stereo not shown) [Compound I-55, 2-[1-({[1-(4-chlorophenyl)cyclobutyl]carbonyl}amino)ethyl]-N-hydroxy-1,3-thiazole-5-carboxamide]
> 7.00 | COc1ccc(C(=O)N[C@H](C)c2ccc(C(=O)NO)s2)cc1 [Compound I-9, N-hydroxy-5-{(1R)-1-[(4-methoxybenzoyl)amino]ethyl}thiophene-2-carboxamide]
